Test results: US20140271930A1, “NONINVASIVE METHOD FOR MEASURING METABOLITES FOR SKIN HEALTH” (priority 2013, published 2014)
Marks after values point to notes of the source that are not given here. Peptide text beside a SMILES is read from it.

System: scalp of dandruff and non-dandruff subjects
Assay: Metabolite expression profiling (LC/MS/MS, GC/MS/MS) of scalp D-Squame tape strip extracts: non-dandruff, dandruff baseline, dandruff after 3 weeks anti-dandruff shampoo
Type: in vivo, human
Conditions: for Fold Change Wk 3 Sel vs Dandruff Baseline / Fold Change Wk 3 ZPT vs Dandruff Baseline / Fold Change Wk 3 ZPT vs Non-Dan Baseline / Fold Change Wk 3 Sel vs Non-Dan Baseline: metabolite level in scalp tape strips; for Fold Change Wk 3 Sel vs Dandruff Baseline / Fold Change Wk 3 ZPT vs Dandruff Baseline: standardized to soluble protein; for Fold Change Wk 3 Sel vs Dandruff Baseline: dandruff subjects after 3 weeks 1% selenium sulfide shampoo vs own baseline; for Fold Change Wk 3 ZPT vs Dandruff Baseline: dandruff subjects after 3 weeks 1% zinc pyrithione shampoo vs own baseline; for Fold Change Wk 3 ZPT vs Non-Dan Baseline: dandruff subjects after 3 weeks 1% ZPT shampoo vs non-dandruff subjects; for Fold Change Wk 3 Sel vs Non-Dan Baseline: dandruff subjects after 3 weeks 1% selenium sulfide shampoo vs non-dandruff subjects; for reduction / decrease of metabolite level vs dandruff baseline: after three weeks ZPT shampoo; for decrease of metabolite level vs dandruff baseline: after three weeks selenium sulfide shampoo
Text: In an embodiment, the use of an adhesive device can be used to achieve such sampling. In preparation for such a sampling study for a dandruff sampling, at a baseline visit, a qualified screening grader will complete adherent scalp flaking score (ASFS) grading for each subject and the highest flaking octant will be identified for tape strip sampling. The highest flaking octant will be sampled at baseline and at various time points during and after treatment with product. Tape strips samples will be collected from each subject at each time point (e.g., baseline and week 3).
The tape strip sampling procedure is repeated additional times, as needed, at the same site placing each D-Squame® tape disc on top of the prior sampled area. The D-Squame® tapes after sample collection are placed into the appropriately labeled wells in a labeled plate.
Following the sampling, an extraction and quantitation procedure is conducted. In an embodiment of the present invention, quantitation of small molecules from extracts of D-Squame® Tape Samples can be conducted via analysis by either LC/MS/MS or GC/MS/MS. In this embodiment of the present invention, the sample extraction in preparation for Metabolite expression profiling technology was performed.
The D-Squame® tape sample plates are removed from −80° C. freezer where they are stored following sample collection, and placed on dry ice. The tape strips are inserted into pre-labeled polypropylene collection tubes, adhesive side facing inward. Extraction buffer containing methanol and water is added to each collection tube and then extracted on ice using sonication for 15 min. If necessary, additional tapes are placed in the collection tube containing the extract solution and the extraction process is repeated as a means of concentrating the sample. Each extract solution is isolated from the tape strip and an aliquot of each sample is placed into a pre-labeled polypropylene collection tubes and frozen at −80° C. for metabolite expression profiling analysis. A separate aliquot is specified for soluble protein analysis using a BCA™ Protein Assay Kit. For this analysis, the aliquot consisting of methanol and water is taken to dryness under a gentle stream of nitrogen. The sample is resuspended in an appropriate aqueous buffer (e.g., PBS/SDS (1× PBS+0.2% SDS) and analyzed for soluble protein.
The extracts are analyzed by GC/MS/MS and LC/MS/MS in positive and negative ion mode. Chromatographic separation followed by full scan mass spectra and MS/MS spectra is carried out to record and quantify all detectable ions present in the samples. Metabolites with known chemical structure can be identified by matching the ions' chromatographic retention index and mass spectra fragmentation signatures with reference library entries created from authentic standard metabolites under the identical analytical procedure as the experimental samples. Welch's Two Sample t-tests and matched-pair t-tests are used to analyze the data. […] The statistical analyses are performed on natural log-transformed data to reduce the effect of any potential outliers in the data. Welch's Two Sample t-test comparisons are made between the means of each biochemical from the various groups listed at the top of the tables and are calculated using either or both of the statistical analysis software programs: Array Studio (Omicsoft, Inc) or “R” from the Free Software Foundation, Inc.
Subjects are evaluated by a qualified grader to establish their scalp status. Dandruff subjects are identified by their level of visible flaking as assessed by a qualified grader. Non-dandruff healthy scalp subjects are evaluated at baseline to establish normalized levels of each biomarker. In this study, there are 60 non-dandruff subjects that are evaluated at baseline. […] They are evaluated at baseline, and after 3 weeks of product usage.

[1] = dandruff subjects after 3 weeks treatment with Sel shampoo, metabolite level in scalp tape strip extract
[2] = dandruff subjects after 3 weeks treatment with ZPT shampoo, metabolite level in scalp tape strip extract
[3] = relative metabolite level in scalp tape strips, dandruff subjects after 3 weeks 1% ZPT shampoo
[4] = relative metabolite level in scalp tape strips, dandruff subjects after 3 weeks 1% selenium sulfide shampoo

Molecule | Mean Values WEEK 3 TRT Sel [1] | Mean Values WEEK 3 TRT ZPT [2] | Fold Change Wk 3 Sel vs Dandruff Baseline | Fold Change Wk 3 ZPT vs Dandruff Baseline | Fold Change Wk 3 ZPT vs Non-Dan Baseline | Fold Change Wk 3 Sel vs Non-Dan Baseline | reduction / decrease of metabolite level vs dandruff baseline [%] | decrease of metabolite level vs dandruff baseline [%] | Mean Values WEEK 3 TRT ZPT [3] | Mean Values WEEK 3 TRT Sel [4]
CCCCCCCCCCCCCCCCCCCC(=O)O [arachidate (20:0), arachidate] | 0.6154 | 0.7662 | 0.42* fold | 0.55* fold | 0.56*** fold | 0.45*** fold | – | – | – | –
CCCCC/C=C\C/C=C\C/C=C\C/C=C\CCCC(=O)O [arachidonate (20:4n6), arachidonate] | – | – | – | – | – | – | 44 | 70 | – | –
CCCCCCCCCCCCCCCCCCCCCC(=O)O [behenate (22:0), behenate] | – | – | 0.84 fold | 0.47 fold | 0.34* fold | 0.57*** fold | – | – | – | –
O=C(O)/C=C\c1cnc[nH]1 [cis-urocanate] | – | – | 1.22 fold | 1.19 fold | 0.91 fold | 0.99 fold | – | – | – | –
CCCCC/C=C\C/C=C\CCCCCCCCCC(=O)O [dihomo-linoleate (20:2n6), dihomo-linoleate] | 0.214 | 0.3984 | 0.15* fold | 0.3* fold | 0.32* fold | 0.17* fold | – | – | – | –
CCCCC/C=C\C/C=C\CCCCCCCCCCCC(=O)O [docosadienoate (22:2n6), docosadienoate] | 0.1554 | 0.3022 | 0.12* fold | 0.24* fold | 0.28* fold | 0.14* fold | – | – | – | –
CC/C=C\C/C=C\C/C=C\CCCCCCCCCCCC(=O)O [docosatrienoate (22:3n3), docosatrienoate] | 0.2735 | 0.5705 | 0.13* fold | 0.26* fold | 0.32 fold | 0.15* fold | – | – | – | –
O=P(O)(O)OCC(O)CO (stereo not shown) [glycerol 3-phosphate (G3P)] | 0.8007 | 0.5943 | – | – | – | – | – | – | – | –
O=C(O)CCc1cnc[nH]1 [imidazole propionate] | – | – | – | – | – | – | – | – | 0.8095 | 0.7836
CC(C)CCCCCCCCCCCCC(=O)O [isopalmitic acid] | 0.3034 | 0.5169 | 0.23* fold | 0.41* fold | 0.41* fold | 0.24* fold | – | – | – | –
CCCCC/C=C\C/C=C\CCCCCCCC(=O)O [linoleate (18:2n6), linoleate] | – | – | – | – | – | – | 82 | 78 | – | –
CCCCCCCCCCCCCCCCC(=O)O [margarate (17:0), margarate] | 0.3903 | 0.6953 | 0.31* fold | 0.6*** fold | 0.45* fold | 0.25* fold | – | – | – | –
CCCCCCCCCCCCCCCCCCC(=O)O [nonadecanoate (19:0), nonadecanoate] | 0.3608 | 0.5421 | 0.29* fold | 0.47* fold | 0.39* fold | 0.26* fold | – | – | – | –
CCCCCCCC/C=C\CCCCCCCC(=O)NCCO [oleic ethanolamide] | 1.1213 | 1.5447 | – | – | – | – | – | – | – | –
CCCCCCCCCCCCCCC(=O)O [pentadecanoate (15:0), pentadecanoate] | 0.3057 | 0.5867 | 0.19* fold | 0.4* fold | 0.37* fold | 0.19* fold | – | – | – | –
CC[C@H](C)[C@H](NC(=O)[C@@H](N)CO)C(=O)O [serylisoleucine*] (H-Ser-Ile-OH) | 1.1161 | 0.9496 | – | – | – | – | – | – | – | –
O=C(O)/C=C/c1cnc[nH]1 [trans-urocanate] | – | – | 0.74* fold | 0.87 fold | 1.41 fold | 1.21 fold | – | – | 1.0096 | 0.8661
Eicosenoate [Eicosenoate (20:1n9 or 11)] | 0.202 | 0.3561 | – | – | – | – | – | – | – | –
dimethylarginine (SDMA + ADMA) | 0.8338 | 1.0243 | – | – | – | – | – | – | – | –
linolenate [alpha or gamma; (18:3n3 or 6)] | – | 0.8941 | – | – | – | – | – | – | – | –
